Laboratory results: patent publication US20260207560A1, “PLURALITY OF GRANULES” (priority 2022, published 2026)
In brackets after ≈: the same amount, converted by molar mass. Several values for one entry are separate records, joined by “and”; a condition that tells them apart may be missing. Identical values can stand only once. Marks after values point to notes of the source that are not given here.

Assays:
[1] = in vivo; cited from earlier work
[2] = Solubility of active ingredient in volatile solvents (visual); conditions: for solubility: thermodynamic from solid, Solubility of the active ingredient; for solubility / Solubility of the active ingredient: visual; for Solubility of the active ingredient: listed as active ingredient
Experimental: The active ingredient was dissolved in different solvents and the stability of the solution was assessed after being held overnight at ambient temperature. The following solvents were studied: ethanol, 50:50 EtOH:Water, 0.1 M HCl, pH 3 citric acid buffer, 5% SLS aq. and 5% Tween 80 aq.
This study involved assessing the solubility and the chemical stability of the active ingredient in different volatile solvents for use in wet granulation. The solubility was measured visually after mixing (by the disappearance of undissolved solids). Increasing quantities of each solvent were added as detailed above.

[3] = Compatibility of active ingredient with HPMC and gelatin capsule shells (assay, related substances); assay type: physicochemical; conditions: for Assay (%): single vials
Experimental: Binary mixtures of the active ingredient with the capsules shells were made as follows: • An active ingredient doping solution (active ingredient dissolved in ethanol) was made ([…]). A 100 μL aliquot of this doping was used to ‘spike’ the 10 vials of each capsule shell type as described in Table 5. The nominal quantity of active ingredient per vial was therefore 50 μg. • No doping solution was added to the three control vials of the excipient. • The active vials were left open overnight to evaporate all the ethanol, before closing the vials. • Both the active and placebo control vials were placed on stability for up to 28 days at 25° C. and 50° C.

[4] = Gelatin capsule shell, 50° C., 28 days
[5] = HPMC capsule shell, 25° C., 14 days
[6] = HPMC capsule shell, 25° C., 14 days, listed as active ingredient
[7] = HPMC capsule shell, 25° C., 28 days
[8] = HPMC capsule shell, 25° C., 28 days, listed as active ingredient
[9] = HPMC capsule shell, 50° C., 14 days
[10] = HPMC capsule shell, 50° C., 14 days, listed as active ingredient
[11] = HPMC capsule shell, 50° C., 28 days
[12] = HPMC capsule shell, 50° C., 28 days, listed as active ingredient
[13] = HPMC capsule shell, initial, listed as active ingredient
[14] = Hard Gelatin capsule shell, 25° C., 14 days, listed as active ingredient
[15] = Hard Gelatin capsule shell, 25° C., 28 days, listed as active ingredient
[16] = Hard Gelatin capsule shell, 50° C., 14 days
[17] = Hard Gelatin capsule shell, 50° C., 14 days, listed as active ingredient
[18] = Hard Gelatin capsule shell, 50° C., 28 days
[19] = Hard Gelatin capsule shell, 50° C., 28 days, listed as active ingredient
[20] = Hard Gelatin capsule shell, initial
[21] = Hard Gelatin capsule shell, initial, listed as active ingredient

## CCS(=O)(=O)Nc1ccc2c(c1)nc(C(C)(C)C)n2CC1CCC(F)(F)CC1 [Compound I, N-(2-(tert-butyl)-1-((4,4-difluorocyclohexyl)methyl)-1H-benzimidazol-5-yl)ethanesulfonamide]
[1]
  CNS-psychoactive effects: does not cause CNS-psychoactive effects
  Effect on appetite: stimulate appetite in a dose-dependent manner
[2]; 0.1 M HCl, simulated gastric fluid
  solubility: 7000 µg/mL (≈ 16.9 mM)
[2]; 0.1 M HCl
  Solubility of the active ingredient: > 7000 µg/mL
[2]; 5% SLS aq., 0.6 mg/mL
  Time to dissolve: 70 min
[2]; 5% SLS aq., 3 mg/mL
  Time to dissolve (DND = did not dissolve): DND
[2]; 5% SLS aq., 7 mg/mL
  Time to dissolve (DND = did not dissolve): DND
[2]; 5% Tween 80 aq., aqueous with cosolvent or surfactant or cyclodextrin, 5% Tween 80
  solubility: < 600 µg/mL
[2]; 5% Tween 80 aq., 0.6 mg/mL
  Time to dissolve (DND = did not dissolve): DND
[2]; 5% Tween 80 aq., 3 mg/mL
  Time to dissolve (DND = did not dissolve): DND
[2]; 5% Tween 80 aq., 7 mg/mL
  Time to dissolve (DND = did not dissolve): DND
[2]; 50:50 EtOH:water, aqueous with cosolvent or surfactant or cyclodextrin, 50:50 EtOH:water
  solubility: < 600 µg/mL
[2]; 50:50 EtOH:water, 0.6 mg/mL
  Time to dissolve (DND = did not dissolve): DND
[2]; 50:50 EtOH:water, 3 mg/mL
  Time to dissolve (DND = did not dissolve): DND
[2]; 50:50 EtOH:water, 7 mg/mL
  Time to dissolve (DND = did not dissolve): DND
[2]; aqueous 5% SLS, aqueous with cosolvent or surfactant or cyclodextrin
  solubility: > 600 µg/mL
[2]; ethanol, organic solvent or mixture
  solubility: 7000 µg/mL (≈ 16.9 mM)
[2]; ethanol
  Solubility of the active ingredient: > 7000 µg/mL
[2]; pH 3 citric acid buffer, pH 3, aqueous buffer, pH 3 citric buffer
  solubility: > 600 µg/mL
[2]; pH 3 citric acid buffer, 0.6 mg/mL
  Time to dissolve: 180 min
[2]; pH 3 citric acid buffer, 3 mg/mL
  Time to dissolve (DND = did not dissolve): DND
[2]; pH 3 citric acid buffer, 7 mg/mL
  Time to dissolve (DND = did not dissolve): DND
[3]; Gelatin capsule shell, 25° C., 14 days
  Assay (%), mean: 98.1%
[3]; Gelatin capsule shell, 25° C., 14 days, listed as active ingredient
  Assay (%): 98.9% and 97.4%
[3]; Gelatin capsule shell, 25° C., 28 days
  Assay (%), mean: 99.1%
[3]; Gelatin capsule shell, 25° C., 28 days, listed as active ingredient
  Assay (%): 98.8% and 99.4%
[3]; Gelatin capsule shell, 50° C., 14 days
  Assay (%), mean: 99.3%
[3]; Gelatin capsule shell, 50° C., 14 days, listed as active ingredient
  Assay (%): 99.3% and 99.4%
[3]; [4]
  Assay (%), mean: 89.3%
  Assay (%): 99.4%
[3]; Gelatin capsule shell, initial
  Assay (%), mean: 99.6%
[3]; Gelatin capsule shell, initial, listed as active ingredient
  Assay (%): 99.0% and 100.2%
[3]; [5]
  Assay (%), mean: 95.8%
  Related substance RRT 1.04: 0.08%
  Related substance RRT 1.10: 0.09%
  Assay (%): 98.9%
[3]; [6]
  Related substance RRT 0.92: 0.08% and 0.07%
  Related substance RRT 0.98: 0.31% and 0.32%
  Related substance RRT 1.35: 0.13% and 0.12%
  Related substance RRT 1.36: 0.13% and 0.12%
  Related substances total: 0.82% and 0.80%
[3]; [7]
  Assay (%), mean: 99.1%
  Related substance RRT 0.92: 0.08%
  Related substance RRT 1.04: 0.07%
  Related substances total: 0.79%
[3]; [8]
  Related substance RRT 0.98: 0.3% and 0.31%
  Related substance RRT 1.10: 0.09% and 0.08%
  Related substance RRT 1.35: 0.12% and 0.13%
  Related substance RRT 1.36: 0.12% and 0.13%
  Assay (%): 99.3% and 99.0%
[3]; [9]
  Assay (%), mean: 98.8%
  Related substance RRT 0.97: 0.67* %
  Related substance RRT 1.04: 0.07%
  Related substance RRT 1.10: 0.09%
  Related substance RRT 1.36: 0.12%
[3]; [10]
  Related substance RRT 0.92: 0.07% and <0.05%
  Related substance RRT 0.98: 0.30% and 0.29%
  Related substance RRT 1.35: 0.13% and 0.12%
  Related substances total: 0.79% and 1.37%
  Assay (%): 98.9% and 98.7%
[3]; [11]
  Assay (%), mean: 98.9%
  Related substance RRT 0.92: 0.07%
  Related substance RRT 1.35: 0.12%
[3]; [12]
  Related substance RRT 0.98: 0.31% and 0.32%
  Related substance RRT 1.04: 0.07% and 0.09%
  Related substance RRT 1.10: 0.09% and 0.10%
  Related substance RRT 1.36: 0.12% and 0.13%
  Related substances total: 0.79% and 0.83%
  Assay (%): 98.8% and 98.9%
[3]; HPMC capsule shell, initial
  Assay (%), mean: 97.8%
  Related substance RRT 1.04: 0.07%
  Related substance RRT 1.35: 0.13%
  Related substance RRT 1.36: 0.13%
[3]; [13]
  Related substance RRT 0.92: 0.08% and 0.07%
  Related substance RRT 0.98: 0.3% and 0.31%
  Related substance RRT 1.10: 0.09% and 0.10%
  Related substances total: 0.81% and 0.82%
  Assay (%): 96.5% and 99.0%
[3]; HPMC or gelatin capsules, all conditions and timepoints
  Degradation of the active ingredient (from % assay): no degradation
[3]; Hard Gelatin capsule shell, 25° C., 14 days
  Related substance RRT 1.35: 0.07%
[3]; [14]
  Related substance RRT 0.92: 0.05% and <0.05%
  Related substance RRT 0.98: 0.22% and 0.18%
  Related substance RRT 1.04: 0.05% and <0.05%
  Related substance RRT 1.10: 0.10% and 0.09%
  Related substance RRT 1.36: 0.07% and 0.08%
  Related substances total: 0.56% and 0.42%
[3]; Hard Gelatin capsule shell, 25° C., 28 days
  Related substance RRT 1.04: <0.05%
[3]; [15]
  Related substance RRT 0.92: 0.05% and <0.05%
  Related substance RRT 0.98: 0.18% and 0.14%
  Related substance RRT 1.10: 0.08% and 0.09%
  Related substance RRT 1.35: 0.07% and 0.06%
  Related substance RRT 1.36: 0.08% and 0.07%
  Related substances total: 0.47% and 0.36%
[3]; [16]
  Related substance RRT 0.92: <0.05%
  Related substance RRT 1.04: <0.05%
  Related substance RRT 1.10: 0.09%
  Related substance RRT 1.35: 0.06%
  Related substance RRT 1.36: 0.07%
[3]; [17]
  Related substance RRT 0.98: 0.14% and 0.12%
  Related substances total: 0.37% and 0.34%
[3]; [18]
  Related substance RRT 0.92: <0.05%
  Related substance RRT 1.04: <0.05%
  Related substance RRT 1.35: 0.06%
  Related substance RRT 1.36: 0.07%
  Related substances total: 0.33%
[3]; [19]
  Related substance RRT 0.98: 0.11% and 0.09%
  Related substance RRT 1.10: 0.09% and 0.11%
[3]; [20]
  Related substance RRT 1.04: 0.05%
  Related substance RRT 1.10: 0.10%
  Related substance RRT 1.36: 0.08%
[3]; [21]
  Related substance RRT 0.92: 0.06% and 0.05%
  Related substance RRT 0.98: 0.26% and 0.24%
  Related substance RRT 1.35: 0.08% and 0.07%
  Related substances total: 0.62% and 0.58%
[3]; both capsule types, all incubation times and temperatures
  Total impurities: below 1%
